How the values were obtained:
Type in all cases: in vivo
rice (Oryza sativa) = test: Test B flooded paddy; conditions: 250 g ai/ha, Flood, 13 to 15 days, scale 0 (no effect) to 100 (complete control)
In short: (§1)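 Test compounds are applied straight into paddy water held 3 cm above the soil surface, with that flood maintained for the whole test. After 13 to 15 days in the greenhouse, each species is scored visually relative to controls.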

[1] = test system: barnyardgrass (Echinochloa crus-galli); test: Test B flooded paddy; conditions: 250 g ai/ha, Flood, 13 to 15 days, scale 0 (no effect) to 100 (complete control)
In short: as §1

[2] = test system: sedge, umbrella (small-flower umbrella sedge, Cyperus difformis); test: Test B flooded paddy; conditions: 250 g ai/ha, Flood, 13 to 15 days, scale 0 (no effect) to 100 (complete control)
In short: as §1

[3] = test system: ducksalad (Heteranthera limosa); test: Test B flooded paddy; conditions: 250 g ai/ha, Flood, 13 to 15 days, scale 0 (no effect) to 100 (complete control)
In short: as §1

[4] = test system: ragweed (common ragweed, Ambrosia elatior); test: Test A preemergence; conditions: 0 to 100 scale (0 no effect, 100 complete control)
In short: (§2)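 Scoring: eye-based comparison with untreated controls, 0 for no effect through 100 for complete control, at about day 10. Treatments: directed soil spray preemergence; foliar spray postemergence on 2–10 cm plants at the one- to two-leaf stage. Medium: loam soil with sand.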

[5] = test system: barnyardgrass (Echinochloa crus-galli); test: Test A preemergence
In short: as §2

kochia (Kochia scoparia) [6] = test: Test A preemergence; conditions: 0 to 100 scale (0 no effect, 100 complete control)
In short: as §2

[7] = test system: pigweed (Amaranthus retroflexus); test: Test A preemergence; conditions: 0 to 100 scale (0 no effect, 100 complete control)
In short: as §2

[8] = test system: giant foxtail (Setaria faberii); test: Test A preemergence; conditions: 0 to 100 scale (0 no effect, 100 complete control)
In short: as §2

[9] = test system: Italian ryegrass (Lolium multiflorum); test: Test A preemergence; conditions: 0 to 100 scale (0 no effect, 100 complete control)
In short: as §2

[10] = test system: wheat (Triticum aestivum); test: Test A postemergence; conditions: 0 to 100 scale
In short: as §2

[11] = test system: ragweed (common ragweed, Ambrosia elatior); test: Test A postemergence; conditions: 0 to 100 scale
In short: as §2

corn (Zea mays) = test: Test A postemergence; conditions: 0 to 100 scale
In short: as §2

[12] = test system: barnyardgrass (Echinochloa crus-galli); test: Test A postemergence; conditions: 0 to 100 scale
In short: as §2

[13] = test system: blackgrass (Alopecurus myosuroides); test: Test A postemergence; conditions: 0 to 100 scale
In short: as §2

kochia (Kochia scoparia) [14] = test: Test A postemergence; conditions: 0 to 100 scale
In short: as §2

[15] = test system: pigweed (Amaranthus retroflexus); test: Test A postemergence; conditions: 0 to 100 scale
In short: as §2

[16] = test system: giant foxtail (Setaria faberii); test: Test A postemergence; conditions: 0 to 100 scale
In short: as §2

[17] = test system: Italian ryegrass (Lolium multiflorum); test: Test A postemergence; conditions: 0 to 100 scale
In short: as §2

[18] = test system: galium (catchweed bedstraw, Galium aparine); test: Test A postemergence; conditions: 0 to 100 scale
In short: as §2

SMILES: Fc1ccc(F)c(Oc2ncc(C(F)(F)F)cn2)c1Oc1ncc(Cl)cn1 [Compound 25]
- Plant response rating, Rice (rice (Oryza sativa)): 20
- Plant response rating, Barnyardgrass [1]: 55
- Plant response rating, Sedge, Umbrella [2]: 75
- Plant response rating, Ducksalad [3]: 90
- Ragweed plant response rating ([4]; 31 g ai/ha): 0
- Ragweed plant response rating ([4]; 125 g ai/ha): 0
- Barnyardgrass plant response rating ([5]; 31 g ai/ha, 0 to 100 scale (0 no effect, 100 complete control)): 10
- Plant response rating, Barnyardgrass ([5]; 125 g ai/ha, 0 to 100 scale): 70
- Kochia plant response rating (kochia (Kochia scoparia) [6]; 31 g ai/ha): 50
- Kochia plant response rating (kochia (Kochia scoparia) [6]; 125 g ai/ha): 100
- Pigweed plant response rating ([7]; 31 g ai/ha): 90
- Pigweed plant response rating ([7]; 125 g ai/ha): 100
- Foxtail, Giant plant response rating ([8]; 31 g ai/ha): 50
- Foxtail, Giant plant response rating ([8]; 125 g ai/ha): 90
- Ryegrass, Italian plant response rating ([9]; 31 g ai/ha): 10
- Ryegrass, Italian plant response rating ([9]; 125 g ai/ha): 40
- Plant response rating, Wheat ([10]; 31 g ai/ha): 0
- Plant response rating, Wheat ([10]; 125 g ai/ha): 30
- Plant response rating, Ragweed ([11]; 31 g ai/ha): 20
- Plant response rating, Ragweed ([11]; 125 g ai/ha): 30
- Plant response rating, Corn (corn (Zea mays); 31 g ai/ha): 10
- Plant response rating, Corn (corn (Zea mays); 125 g ai/ha): 30
- Plant response rating, Barnyardgrass ([12]; 31 g ai/ha): 10
- Plant response rating, Barnyardgrass ([12]; 125 g ai/ha): 60
- Plant response rating, Blackgrass ([13]; 31 g ai/ha): 60
- Plant response rating, Blackgrass ([13]; 125 g ai/ha): 70
- Plant response rating, Kochia (kochia (Kochia scoparia) [14]; 31 g ai/ha): 50
- Plant response rating, Kochia (kochia (Kochia scoparia) [14]; 125 g ai/ha): 70
- Plant response rating, Pigweed ([15]; 31 g ai/ha): 90
- Plant response rating, Pigweed ([15]; 125 g ai/ha): 100
- Plant response rating, Foxtail, Giant ([16]; 31 g ai/ha): 30
- Plant response rating, Foxtail, Giant ([16]; 125 g ai/ha): 50
- Plant response rating, Ryegrass, Italian ([17]; 31 g ai/ha): 0
- Plant response rating, Ryegrass, Italian ([17]; 125 g ai/ha): 50
- Plant response rating, Galium ([18]; 31 g ai/ha): 80
- Plant response rating, Galium ([18]; 125 g ai/ha): 90

From patent publication US20170190671A1, “BIS(ARYL)CATECHOL DERIVATIVES AS HERBICIDES” (E I DU PONT DE NEMOURS AND COMPANY, priority 2014, published 2017)
